From patent US11312722B2, “Hsp90 inhibitors and uses thereof” (TRUSTEES OF BOSTON UNIVERSITY, priority 2019, dated 2022)

Columns and labels:
[1] = molecular target: Hsp90 (C. neoformans whole cell lysate) (Cryptococcus neoformans, UniProt J9VVA4); assay type: binding; conditions: for C. neo Active (biochemical): Yes/No call; for EC50: read-out: C. neo EC50
Method: (§1) All analogs were assessed for Hsp90 binding affinity using a fluorescence polarization (FP)-based equilibrium competition assay in fungal and human whole cell lysates. […] Using lysates, the relative potency and selectivity for fungal Hsp90 was measured versus the entire ensemble of human Hsp90 isoforms in microplate format using small amounts of test materials. […] Thermal shift assays were performed under saturating ligand conditions, i.e. equimolar concentrations (10 μM) of protein and ligand. As a result, they provided qualitative evidence of target binding, but not a quantitative measurement of ligand affinity. For quantitation, a ligand dissociation constant (Ki) for key compounds was also determined using purified NBDs in FP assays and KD measurements were made by surface plasmon resonance (SPR) using a Biacore instrument. Finally, all analogs were assessed for whole cell antifungal activity against the pathogens C. albicans and C. neoformans.
(§2) FP assays. Whole cell lysates were prepared for FP assays as described previously. Total protein concentration of human and yeast lysates was determined by Bradford assay. […] Serial dilutions of test Hsp90 inhibitors were then assayed under these same conditions to monitor loss of fluorescence polarization as an indicator of probe displacement from Hsp90. […] Titrations of test compound in 25 μL of binding buffer (supplemented with 0.1 mg/mL bovine gamma globulin), were mixed with an equal volume of freshly prepared whole-cell lysate spiked with Cy3-GdA (0.1 nM). Plates were incubated at room temperature for 4.5 h to achieve equilibrium binding for the geldanamycin-based probe. […] Non-linear 4-parameter curve fitting of raw displacement data was performed in GraphPad Prism 5.0 to determine EC50 values as a measure of relative Hsp90-binding affinity. Results were normalized to the value determined for GdA in lysate of each cell type.
(§3) Statistical methods. […] In calculating the error of selectivity determinations, the fractional error of measurements in each species was summed to yield a composite error for the derived ratio.

[2] = system: Hsp90 (C. neoformans whole cell lysate); assay type: binding; conditions: Yes/No call
Method: as §1, §2, §3

[3] = molecular target: Hsp90 (C. albicans whole cell lysate) (Candida albicans (strain SC5314 / ATCC MYA-2876) (Yeast), UniProt P46598); experiment: biochemical; assay type: binding; conditions: for C. alb Active (biochemical): Yes/No call; for EC50: read-out: C. alb EC50
Procedure, shortened: (§4)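 In this fluorescence polarization competition assay, compound titrations in buffer with 0.1 mg/mL bovine gamma globulin were mixed with fungal whole-cell lysate spiked with 0.1 nM Cy3-geldanamycin probe. Plates were incubated 4.5 h at room temperature. EC50 came from 4-parameter fits of probe displacement, normalized to GdA in the same lysate.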

[4] = system: Hsp90 (C. albicans whole cell lysate); experiment: biochemical; assay type: binding; conditions: for C. alb Selective: Yes/No call
Procedure, shortened: as §4

C. neoformans Hsp90 NBD [5] = molecular target: T1, C. neoformans Hsp90 NBD (Cryptococcus neoformans, UniProt J9VVA4); experiment: FP assay with purified C. neoformans Hsp90 NBD (Ki); assay type: binding; conditions: for C. neo Selectivity (FS): C. neo FS calculated using Ki
T1 sequence (J9VVA4 1-699): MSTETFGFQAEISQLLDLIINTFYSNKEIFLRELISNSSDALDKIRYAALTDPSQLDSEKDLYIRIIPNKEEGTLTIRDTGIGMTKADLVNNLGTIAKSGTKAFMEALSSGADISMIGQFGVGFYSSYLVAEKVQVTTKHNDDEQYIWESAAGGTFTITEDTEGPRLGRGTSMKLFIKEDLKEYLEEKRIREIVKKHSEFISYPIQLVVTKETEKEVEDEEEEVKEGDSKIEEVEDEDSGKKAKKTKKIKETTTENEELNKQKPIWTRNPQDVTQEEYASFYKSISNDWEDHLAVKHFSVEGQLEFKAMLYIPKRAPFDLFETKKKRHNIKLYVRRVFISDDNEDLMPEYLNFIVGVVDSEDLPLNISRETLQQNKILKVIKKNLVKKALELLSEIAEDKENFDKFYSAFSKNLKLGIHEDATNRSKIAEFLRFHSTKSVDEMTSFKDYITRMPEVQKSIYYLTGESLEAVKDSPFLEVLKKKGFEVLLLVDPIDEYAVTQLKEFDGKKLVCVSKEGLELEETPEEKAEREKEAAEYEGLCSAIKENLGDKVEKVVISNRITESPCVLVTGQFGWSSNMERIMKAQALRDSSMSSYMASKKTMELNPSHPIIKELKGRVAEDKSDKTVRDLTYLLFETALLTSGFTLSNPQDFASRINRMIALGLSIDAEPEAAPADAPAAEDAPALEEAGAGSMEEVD
Method: Thermal shift assays were performed under saturating ligand conditions, i.e. equimolar concentrations (10 μM) of protein and ligand. As a result, they can provide only qualitative evidence of target binding, but not a quantitative measurement of ligand affinity. […] Titrations of the Cy3-GdA probe and purified proteins were evaluated to define assay conditions and to determine the dissociation constant Kd of the probe for each NBD. Serial dilutions of test Hsp90 inhibitors were then assayed in triplicate wells under these conditions. Non-linear 4-parameter curve fitting of raw displacement data was performed in GraphPad Prism 5.0 to determine IC50 values. Finally, inhibitory constants (Ki) were calculated as described previously.
NBD expression and purification. Recombinant Hsp90 NBDs were expressed and purified as previously described. Stock protein solutions in 50% glycerol were stored at −20° C. until dilution into relevant buffers and use for FP and thermal shift assays.

[6] = system: C. neoformans (Strain H99); experiment: Antifungal sensitivity testing (MIC), C. neoformans H99; assay type: cell-based; conditions: for C. neo Active (cells): Yes/No call; for MIC80 / MIC90: Cryptococcus neoformans; for MIC80: read-out: C. neo MIC80; for MIC90: read-out: C. neo MIC90
C. neoformans Hsp90 NBD [7] = molecular target: T1, C. neoformans Hsp90 NBD; experiment: biochemical; assay type: binding; conditions: SPR, 25° C., read-out: Biacore KD
Method: SPR assays. For SPR experiments, Hsp90 NBD expression constructs were modified to encode a C-terminal AviTag™ for site-specific on-column biotinylation with a BirA biotin-ligase kit (Avidity LLC; BirA-500). SPR experiments were performed on a Biacore T200 instrument at 25° C. Biotinylated Hsp90 NBD was diluted to 40 μg/mL and immobilized on a streptavidin chip (Sensor Chip SA, GE Healthcare) at a density of 2000-2500 response units (RU) on the biosensor surface. […] Resulting sensorgrams were analyzed with a fit to a 1:1 binding model, using BIA evaluation software.

[8] = mouse liver microsomes; for % remaining at 15 min (NADPH-free): NADPH-free control; for % remaining at 15 min / % remaining at 60 min: with NADPH
in vitro = conditions: both, CD-1, mouse; for CLint scaled at 1 μM: liver microsomes
C. neoformans Hsp90 NBD [9] = molecular target: T1, C. neoformans Hsp90 NBD; experiment: Protein thermal shift assay, C. neoformans Hsp90 NBD; assay type: binding; conditions: equimolar protein and ligand (10 μM)
Method: […]. Using recombinant proteins, assay-independent nanomolar inhibitory constants (Ki) were defined for these compounds. Binding of the compounds to their relevant NBD by thermal shift denaturation assays was also confirmed. Thermal shift assays were performed under saturating ligand conditions, i.e. equimolar concentrations (10 μM) of protein and ligand. As a result, they can provide only qualitative evidence of target binding, but not a quantitative measurement of ligand affinity. […] […]. C. neoformans or C. albicans Hsp90 NBD was combined with equimolar concentrations of the indicated bioactive inhibitors (10 μM) or DMSO control, in technical triplicates. The protein was heated from 25 to 98.6° C. at 0.2° C./5 s in the presence of Sypro Orange dye. All compounds induce an increase in melting temperature relative to the DMSO control, reported as ΔTm.
Protein thermal shift assays. Thermal melting curves were determined using a Protein Thermal Shift Kit (ThermoFisher #4462263), employing a CFX384 Real-Time PCR System (Bio-Rad, C1000 Touch Thermal Cycler). Reactions were performed in a final volume of 10 μL, and contained purified C. albicans or C. neoformans Hsp90 NBD diluted to 250 μg/mL in Buffer HBS-P (GE Healthcare Life Sciences, 0.01 M HEPES pH 7.4, 0.15 M NaCl, 0.005% v/v Surfactant P20) with 10 μM synthetic analog or DMSO control, and 1× Sypro Orange dye solution. Samples were prepared in triplicate in 384-well white plates (Bio-Rad; HSP3805). The instrument was set to melt curve, step 1 (25° C., 2 min) and step 2 (ramp to 98.6° C., increasing 0.2° C. per 5 s cycle). The inflection point of each curve is defined as the protein melting temperature (Tm). Temperature shift, ΔTm, was recorded as the difference between the Tm of the fungal Hsp90 NBD with compound minus Tm of the protein without compound.

[10] = system: C. albicans clinical isolate (CaCi2); experiment: Fungicidal activity: spotting of MIC cultures onto compound-free YPD agar; assay type: cell-based; conditions: C. albicans CaCi2, spotted on YPD agar after 48 h exposure
Method: Color scale bar: no growth inhibition (green) to complete inhibition (black). Each shaded box represents the mean of technical duplicates. The experiment was repeated as an independent biological replicate to confirm results.
Each shaded box represents the mean of technical duplicates. Relative viable cell number was monitored by standard dye reduction assay after 3-hr incubation with resazurin at 37° C. FIG. 6B: Following exposure to compounds, aliquots of the culture in each well were spotted onto compound-free YPD agar and plates incubated at 30° C. for an additional 24 hours before imaging to assess viability. The entire experiment consisting of growth in liquid culture followed by spotting onto YPD agar was repeated once.
Antifungal sensitivity testing. […] Each compound was tested in duplicate in at least two independent experiments. […] Plates were photographed after 24 h of incubation at 30° C.

Hsp90 (C. neoformans whole cell lysate) (Cryptococcus neoformans, UniProt J9VVA4), sequence (J9VVA4 1-699): as above

Row | Compound | EC50 [1] | C. alb Active (biochemical) [3] | EC50 [3] | C. alb Selectivity (FS) [4] | C. alb Selective [4] | C. neo Selectivity (FS) (C. neoformans Hsp90 NBD [5]) | C. neo MIC80 [6] | C. neo MIC90 [6] | further results
1 | COc1ccccc1-c1cc(Nc2cc(O)cc(O)c2C(=O)N2CC[C@H](NC(C)=O)C2)n(C)n1 [ACSM01348] | 620 nM | Yes | 2250 nM | >5 | Yes | 107.7 | >25 µM | >25 µM | C. neo Active (biochemical) [1]: Yes; C. neo selective [2]: Yes; C. neo Active (cells) [6]: No
2 | COc1ccccc1-c1cc(Nc2cc(O)cc(O)c2C(=O)N2CC[C@H](NC(C)=O)C2)n(C)n1 [ACSM01349] | 246 nM | Yes | 1210 nM | 9.5 | Yes | 159.7 | >25 µM | >25 µM | C. neo Active (biochemical) [1]: Yes; C. neo selective [2]: Yes; C. neo Active (cells) [6]: No
3 | COc1cccc(-c2cc(Nc3cc(O)cc(O)c3C(=O)N3Cc4cn[nH]c4C3)n(C)n2)c1 [Compound 114, 5-((3-(3-Methoxyphenyl)-1-methyl-1H-pyrazol-5-yl)amino)-4-(1H,4H,5H,6H-pyrrolo[3,4-c]pyrazole-5-carbonyl)benzene-1,3-diol] |  | Yes |  |  |  |  |  |  | Kd (C. neoformans Hsp90 NBD [7]): 22 nM; MIC80 [6]: > 25 µM; MIC90 [6]: > 25 µM; % remaining at 15 min (NADPH-free) [8]: 108.2%; % remaining at 15 min [8]: 40.1%; % remaining at 60 min [8]: 7.0%; CLint scaled at 1 μM (in vitro): 318 mL/min/kg
4 | Cn1nc(-c2ccccc2)cc1Nc1cc(O)cc(O)c1C(=O)N1Cc2ccncc2C1 [BUCMD00467] | 151 nM | Yes | 1040 nM | 0.4 | No | 57.3 | >25 µM | >25 µM | 
5 | COc1ccccc1-c1cc(Nc2cc(O)cc(O)c2C(=O)N2CC[C@@H](OC)C2)n(C)n1 [ACSM01350] | 106 nM | Yes | 233 nM | 9.2 | Yes | 259.7 | >25 µM | >25 µM | C. neo Active (biochemical) [1]: Yes; C. neo selective [2]: Yes; C. neo Active (cells) [6]: No
6 | COc1ccc(Cn2nc(-c3ccccc3)cc2Nc2cc(O)cc(O)c2C(=O)N2Cc3ccccc3C2)cc1 [Compound 21, 4-(2,3-dihydro-1H-isoindole-2-carbonyl)-5-((1-((4-methoxyphenyl)methyl)-3-phenyl-1H-pyrazol-5-yl)amino)benzene-1,3-diol] |  |  |  |  |  |  |  |  | C. neoformans NBD ΔTm (C. neoformans Hsp90 NBD [9]): 14 °C; fungicidal activity in combination with fluconazole [10]: fungicidal activity in combination with fluconazole
7 | Cc1cc(Nc2cc(O)cc(O)c2C(=O)N2Cc3ccccc3C2)n(Cc2ccccc2Cl)n1 [Compound 89, 5-((1-((2-Chlorophenyl)methyl)-3-methyl-1H-pyrazol-5-yl)amino)-4-(2,3-dihydro-1H-isoindole-2-carbonyl)benzene-1,3-diol] |  |  |  |  |  |  |  |  | C. neoformans NBD ΔTm (C. neoformans Hsp90 NBD [9]): 12 °C; fungicidal activity in combination with fluconazole [10]: fungicidal activity in combination with fluconazole
8 | COc1ccccc1-c1cc(Nc2cc(O)cc(O)c2C(=O)N2CC[C@H](OC)C2)n(C)n1 [ACSM01351] | 244 nM | Yes | 628 nM | 4.6 | No | 98 | >25 µM | >25 µM | 
9 | Cn1nc(-c2ccc(C(F)(F)F)cc2)cc1Nc1cc(O)cc(O)c1C(=O)N1Cc2ccccc2C1 [Compound 124, 4-(2,3-Dihydro-1H-isoindole-2-carbonyl)-5-((1-methyl-3-(4-(trifluoromethyl)phenyl)-1H-pyrazol-5-yl)amino)benzene-1,3-diol] |  |  |  |  |  |  |  |  | Ki (C. neoformans Hsp90 NBD [5]; FP, purified recombinant NBD): 190 nM; C. neoformans NBD ΔTm (C. neoformans Hsp90 NBD [9]): 1 °C
10 | COc1ccc(Cn2ncc(C)c2Nc2cc(O)cc(O)c2C(=O)N2Cc3ccccc3C2)cc1 [Compound 41, 4-(2,3-Dihydro-1H-isoindole-2-carbonyl)-5-((1-((4-methoxyphenyl)methyl)-4-methyl-1H-pyrazol-5-yl)amino)benzene-1,3-diol] |  |  |  |  |  |  |  |  | fungicidal activity in combination with fluconazole [10]: fungicidal activity in combination with fluconazole
11 | COc1cccc(-c2cc(Nc3cc(O)cc(O)c3C(=O)N3Cc4ccccc4C3)n(C)n2)c1 [Compound 112, 4-(2,3-Dihydro-1H-isoindole-2-carbonyl)-5-((3-(3-methoxyphenyl)-1-methyl-1H-pyrazol-5-yl)amino)benzene-1,3-diol] |  | Yes |  |  |  |  |  |  | Kd (C. neoformans Hsp90 NBD [7]): 74 nM; MIC80 [6]: > 25 µM; MIC90 [6]: > 25 µM; % remaining at 15 min (NADPH-free) [8]: 99.3%; % remaining at 15 min [8]: 3.7%; % remaining at 60 min [8]: 0%; CLint scaled at 1 μM (in vitro): 1740 mL/min/kg; half-life (in vitro; microsomes): 3.2 min
